Data: publication PMC3337405 (Cancer Chemotherapy and Pharmacology, 2012)
Several values for one entry are separate records, joined by “and”; a condition that tells them apart may be missing. Equal entries are not always repeated.

Columns and labels:
[1] = Plasma pharmacokinetics, noncompartmental analysis
Description: (§2) Blood samples for PK analysis were collected predose and 0.5, 1, 2, 3, 4, 8, 12, and 24 h post dose on days 1 and 3 at the same time as ECG assessments. […] Noncompartmental analysis (WinNonlin™ version 5.2, Pharsight, Sunnyvale, California) was performed to determine the following PK parameters: C max, T max, minimum (trough) plasma concentration over a dosing interval (C min), and AUC calculated using a trapezoidal method. For moxifloxacin, the AUC from time 0 to the last measurable concentration sampling time was calculated (AUC0–tlast).

healthy volunteers [2] = assay: Concentration–QT linear random-effects model; format: in vivo, human; settings: for concentration versus QTcF slope: plasma concentration of the analyte after midostaurin dosing, day 3
Excerpt: Baseline QTcF was included in the model as a covariate. […] This exploratory analysis was applied to both the change from the time-matched baseline and the change from time-averaged baseline.

[3] = cited from earlier work
[4] = human, in vivo
Description: as §2

QT interval = settings: ref 16 (AC220), 17 (MLN518), 18 (sorafenib); cited from earlier work
healthy volunteers [5] = assay: Adverse events and discontinuations; format: in vivo, human
Description: (§1) Electrocardiogram analysis was performed at a blinded central reading facility (ERT, East Bridgewater, NJ) in digital format, with paper tracings obtained and archived immediately on site. Vital signs were assessed daily. Clinical laboratory parameters were assessed at baseline and at the end of study. Self-reported adverse events were continuously recorded from the first study treatment (placebo, day −1) through the end of study on day 4.

healthy volunteers [6] = assay: Thorough QT/QTc study: QTcF change from baseline on day 3 (12-lead ECG); format: in vivo, human
Excerpt: This study was a phase I, randomized, double-blind, placebo- and active-controlled, 3-way, parallel-group study conducted at a single center in the United States and approved by the Arkansas Research Medical Testing, LLC, Institutional Review Board. The design followed the recommendations of the International Conference on Harmonisation of Technical Requirements for Registration of Pharmaceuticals for Human Use (ICH) E14 guideline on “The Clinical Evaluation of QT/QTc Interval Prolongation and Proarrhythmic Potential for Non-Antiarrhythmic Drugs” [19]. As such, the trial included a concurrent positive control group and addressed intrinsic variability by conducting multiple ECGs at baseline and during the study. The study was conducted according to the ethical principles of the Declaration of Helsinki, and written informed consent was obtained from each subject during screening.
The treatment regimen was selected to achieve maximal plasma exposure for QTc evaluation while minimizing the risks of excessive or prolonged exposure in healthy volunteers.
The baseline comparison was from day −1 to day 3 at matched time points.
The following hypothesis was tested to confirm that the study had sufficient assay sensitivity: [drawing 3] [drawing 4] where μmoxi(t) was the mean QTcF change from baseline observed following moxifloxacin 400 mg at time point t. If the null hypothesis was rejected, the study had sufficient sensitivity. The Simes method was used for the protection of an experiment-wise 5% type I error [22, 23]. With the Simes method, the original P values corresponding to 0.5, 1, 2, 3, and 4 h post baseline are ordered increasingly, that is, P 1 ≤ P 2 ≤ P 3 ≤ P 4 ≤ P 5. After the Simes correction, the P values were 5P 1, 5P 2/2, 5P 3/3, 5P 4/4, and P 5 respectively. If any of the 5 adjusted P values were <.05, assay sensitivity was claimed. Only the participants who completed all scheduled doses of study medication from day 1 to day 3 and had at least 1 ECG on day −1 (baseline) and at least 1 ECG on day 3 (time-matched day 3 data for the time-matched analysis) were included in the assay sensitivity test.
Electrocardiogram measurements at each time point were calculated as an average of 3 separate ECG extractions or replicates. (Each extraction was the mean of 3 beats.) If fewer than 3 measurements were available, the available samples were averaged (i.e., a minimum of 1 measure was required). For each subject, the time-matched baseline value was subtracted from the QT/QTc intervals to determine the change from baseline in QT/QTc intervals for that subject. The 2 null hypotheses described above were tested in a linear mixed-effect model with a compound symmetry covariance structure. The model included the baseline measure as covariate and treatment, time, and the treatment-by-time interaction as fixed effects, where time was a categorical variable and subject was a random effect.
The time-matched analysis was conducted on the QTcF change from the time-matched baseline as recommended by the ICH E14 guideline. Although modeling change from the time-matched baseline was the primary analysis, the change from the time-averaged baseline was also analyzed using the same model. For the averaged baseline, each triplicate ECG collection was averaged first, and then the averaged baseline was calculated based on all the averaged triplicate ECG and unscheduled ECGs.
as §1, with “Standard triplicate 12-lead ECGs were obtained at 9 time points over 24 h at […] and at 2 time points on day 1. Electrocardiogram” for “Electrocardiogram”

healthy volunteers [7] = assay: Outlier analysis of QTc and other ECG parameters, ECG morphology; format: in vivo, human; settings: for QTcB >30 ms, time-matched change from baseline, participants: text: 30- to 60-ms category
Description: Outlier analysis for QTc was also exploratory because this study was not powered to detect individuals with genetic sensitivity to potential QT-prolonging drugs. The nonspecific outlier criterion was a change from baseline in QTc interval of 30–60 ms.
as §1, with “Standard triplicate 12-lead ECGs were obtained at 9 time points over 24 h at […] and at 2 time points on day 1. Electrocardiogram” for “Electrocardiogram”

QTcF interval = settings: cited from earlier work
[8] = moxifloxacin 400 mg, 1 h post dose on day 3

CO[C@@H]1[C@H](N(C)C(=O)c2ccccc2)C[C@H]2O[C@]1(C)n1c3ccccc3c3c4c(c5c6ccccc6n2c5c31)C(=O)N[C@H]4O [CGP52421]
Tmax ([1]; human, plasma, oral, 75 mg, time of peak concentrations post dose, midostaurin dosing, days 1 and 3): 3 to 4 h | AUC(0-t) ([1]; human, plasma, po, 75 mg): 3.51 µg·h/mL | Cmax ([1]; human, plasma, po, 75 mg, mean (SD), Day 1 (single dose), midostaurin 75 mg oral, plasma): 0.385 µg/mL | Cmax ([1]; human, plasma, po, 75 mg, mean (SD), Day 3 (twice daily), midostaurin 75 mg oral, plasma): 1.25 µg/mL | Tmax ([1]; human, plasma, po, 75 mg, Tmax, median (range), Day 1 (single dose), midostaurin 75 mg oral, plasma): 4 h | Tmax ([1]; human, plasma, po, 75 mg, Tmax, median (range), Day 3 (twice daily), midostaurin 75 mg oral, plasma): 3.1 h | concentration versus QTcF slope (healthy volunteers [2]): 0.2 | concentration versus QTcF slope (healthy volunteers [2]; listed as CPG52421): either negative or not statistically significant | concentration at steady state relative to midostaurin and CGP62221 ([3]; daily oral dosing of midostaurin, plasma): approximately seven | half-life ([3]; human participants): up to 1 month | treatment needed to reach the steady state ([3]; midostaurin dosing): 21 to 28 days

CN(C(=O)c1ccccc1)[C@@H]1C[C@H]2O[C@@](C)([C@@H]1O)n1c3ccccc3c3c4c(c5c6ccccc6n2c5c31)C(=O)NC4 [CGP62221]
time of peak concentrations post dose [4]: 3 to 4 h | AUC0-12h, mean (SD) ([4]; po, 75 mg): 7848.2 (1579.9) ng * hour/mL | AUC0-24h, mean (SD) ([4]; po, 75 mg): 36 486.5 (9769.7) ng × hour/mL

CNC(=O)c1cc(Oc2ccc(NC(=O)Nc3ccc(Cl)c(C(F)(F)F)c3)cc2)ccn1 [sorafenib]
effect on QT interval in clinical trials (QT interval): induce prolongation of the QT interval

COc1c(N2C[C@@H]3CCCN[C@@H]3C2)c(F)cc2c(=O)c(C(=O)O)cn(C3CC3)c12 [Moxifloxacin, reference compound]
Cmax ([1]; human, plasma, oral, 400 mg, geometric mean, moxifloxacin 400 mg overencapsulated, day 3): 2.5 µg/mL | Cmax ([1]; human, plasma, oral, 400 mg, mean, moxifloxacin 400 mg overencapsulated, day 3): 2.54 µg/mL | Cmax ([1]; human, plasma, oral, 400 mg, median, moxifloxacin 400 mg overencapsulated, day 3): 2.46 µg/mL | Tmax ([1]; human, plasma, oral, 400 mg, Tmax, median, moxifloxacin 400 mg overencapsulated, day 3): 2.1 h | Cmax, mean ([1]; moxifloxacin 400 mg overencapsulated, day 3): 2.544 µg/mL | Discontinued, main cause Adverse event(s) (healthy volunteers [5]; randomized set): 0 (0.0) no. (%) | Discontinued, main cause Death (healthy volunteers [5]; randomized set): 0 (0.0) no. (%) | Abdominal pain (healthy volunteers [5]; safety set, all grade 1/2): 0 (0.0) no. (%) | Arthralgia (healthy volunteers [5]; safety set, all grade 1/2): 0 (0.0) no. (%) | Diarrhea (healthy volunteers [5]; safety set, all grade 1/2): 1 (2.3) no. (%) | Dizziness (healthy volunteers [5]; safety set, all grade 1/2): 1 (2.3) no. (%) | Dry mouth (healthy volunteers [5]; safety set, all grade 1/2): 0 (0.0) no. (%) | Dysmenorrhea (healthy volunteers [5]; safety set, all grade 1/2): 0 (0.0) no. (%) | Dyspepsia (healthy volunteers [5]; safety set, all grade 1/2): 1 (2.3) no. (%) | Eructation (healthy volunteers [5]; safety set, all grade 1/2): 0 (0.0) no. (%) | Flatulence (healthy volunteers [5]; safety set, all grade 1/2): 1 (2.3) no. (%) | Flushing (healthy volunteers [5]; safety set, all grade 1/2): 0 (0.0) no. (%) | Headache (healthy volunteers [5]; safety set, all grade 1/2): 4 (9.1) no. (%) | Hiccups (healthy volunteers [5]; safety set, all grade 1/2): 0 (0.0) no. (%) | Hot flushes (healthy volunteers [5]; safety set, all grade 1/2): 0 (0.0) no. (%) | Nausea (healthy volunteers [5]; safety set, all grade 1/2): 5 (11.4) no. (%) | Pollakiuria (healthy volunteers [5]; safety set, all grade 1/2): 1 (2.3) no. (%) | Rash (healthy volunteers [5]; safety set, all grade 1/2): 1 (2.3) no. (%) | Salivary hypersecretion (healthy volunteers [5]; safety set, all grade 1/2): 0 (0.0) no. (%) | Sexually transmitted disease (healthy volunteers [5]; safety set, all grade 1/2): 0 (0.0) no. (%) | Vomiting (healthy volunteers [5]; safety set, all grade 1/2): 1 (2.3) no. (%) | Participants with adverse events (healthy volunteers [5]; safety set, all grade 1/2, 4-day evaluation period): 9 (20.5) no. (%) | Tachycardia (healthy volunteers [5]; safety set, grade 1, midostaurin-arm cases occurred during placebo run-in (day −1)): 0 (0.0) no. (%) | slope of QT change from baseline with increasing plasma concentration (healthy volunteers [2]; moxifloxacin, QT): 4.0 | slope of QTcB change from baseline with increasing plasma concentration (healthy volunteers [2]; moxifloxacin, QTcB): 2.6 | slope of QTcF change from baseline with increasing plasma concentration (healthy volunteers [2]; moxifloxacin, QTcF): 3.2 ms per μg/mL | upper limit of the 95% CI of QTcF prolongation from time-matched baseline (healthy volunteers [6]; moxifloxacin 400 mg, 1 h post dose): 14.9 ms | lower bound of 95% CI, QTcF change from time-averaged baseline compared with placebo (healthy volunteers [6]; [8]): 7.6 ms | lower bound of the 1-sided 95% CI of QTcF prolongation from time-matched baseline (healthy volunteers [6]; [8]): 6.4 ms and > 5 ms | maximum mean QTcF change from time-averaged baseline compared with placebo (healthy volunteers [6]; [8]): 10.2 ms | maximum mean QTcF prolongation from time-matched baseline compared with placebo (healthy volunteers [6]; moxifloxacin single 400-mg dose, 1 h post dose on day 3): 10.7 ms | new U-wave abnormalities (healthy volunteers [7]; 12-lead ECG): 1 case | new post baseline T-wave abnormalities (healthy volunteers [7]; 12-lead ECG): 4 participants | PR increase ≥25% and resultant PR >200 ms, participants (healthy volunteers [7]; safety set): 0 no. (%) | QRS increase ≥25% and resultant QRS >100 ms, participants (healthy volunteers [7]; safety set): 0 no. (%) | QTcB >60 ms, time-matched change from baseline, participants (healthy volunteers [7]; safety set): 0 no. (%) | QTcF >30 ms, time-matched change from baseline, participants (healthy volunteers [7]; safety set): 0 no. (%) | QTcF >60 ms, time-matched change from baseline, participants (healthy volunteers [7]; safety set): 0 no. (%) | QTcI >30 ms, time-matched change from baseline, participants (healthy volunteers [7]; safety set): 0 no. (%) | QTcI >60 ms, time-matched change from baseline, participants (healthy volunteers [7]; safety set): 0 no. (%) | RR decrease ≥25% and resultant RR <600 ms, participants (healthy volunteers [7]; safety set): 0 no. (%) | RR increase ≥25% and resultant RR >1,200 ms, participants (healthy volunteers [7]; safety set): 0 no. (%) | QTcB New >450 ms, participants (healthy volunteers [7]; safety set, post baseline, text: between 450 and 480 ms): 1 (2.3%) no. (%) | QTcB >30 ms, time-matched change from baseline, participants (healthy volunteers [7]; safety set): 7 (15.9) no. (%) | QTcB >30 ms, time-matched change from baseline, participants (healthy volunteers [7]; safety set, listed as moxifloxacin): 7 (15.9%) no. (%) | mean slope estimates, concentration–QTc (QTcF interval; 5 other thorough QTc studies): 2.5 ms per μg/mL and 2.4 ms per μg/mL and 3.3 ms per μg/mL and 3.5 ms per μg/mL and 4.3 ms per μg/mL | effect on QTc intervals (QTcF interval): prolong QTc intervals in a dose-dependent manner | expected effect on the QTcF interval (QTcF interval; previous studies): 8 to 13 ms | Cmax previously reported ([3]; moxifloxacin): 2.83 µg/mL
